# What was measured:
# [1] = biological target: T1, Kappa-type opioid receptor (Homo sapiens, UniProt P41145); assay: Compound was evaluated for its binding affinity by displacing [3H]U-69593 to human cloned Kappa opioid receptor transfected into CHO cells using [35S]GTP-gamma-S, assay; type: functional, cell-based
# [2] = biological target: T1, Kappa-type opioid receptor; assay: Compound was evaluated for its binding affinity to CHO cells expressing cloned human Opioid receptor kappa 1 by displacing [3H]U-69593; type: cell-based
# [3] = biological target: T2, Delta-type opioid receptor (Homo sapiens, UniProt P41143); assay: Compound was evaluated for functional opioid activity by stimulation of [35S]GTP-gamma-S, in cloned human Opioid receptor delta 1 transfected into CHO cells; type: cell-based
# [4] = biological target: T2, Delta-type opioid receptor; assay: Compound was evaluated for its binding affinity to CHO cells expressing cloned human Opioid receptor delta 1 by displacement of [3H]Cl-DPDPE; type: cell-based
# Mu-type opioid receptor [5] = biological target: T3, Mu-type opioid receptor (Homo sapiens, UniProt P35372); assay: Compound was evaluated for its binding affinity against CHO cells transfected with cloned human Opioid receptor mu 1 by displacing [3H]DAMGO; type: cell-based
# Mu-type opioid receptor [6] = biological target: T3, Mu-type opioid receptor; assay: Compound was evaluated for its binding affinity by displacing DAMGO to human cloned mu opioid receptor transfected into CHO cells using [35S]GTP-gamma-S, assay; type: functional, cell-based
# Mu-type opioid receptor [7] = biological target: Mu-type opioid receptor (Cavia porcellus, UniProt P97266); assay: Compound was evaluated for its binding affinity against Opioid receptor mu 1 of guinea pig brain membrane by displacing [3H]DAMGO
# [8] = biological target: T2, Delta-type opioid receptor; assay: Compound was evaluated for its binding affinity to CHO cells expressing cloned human Opioid receptor delta 1 by displacement of [3H]-Cl-DPDPE; type: cell-based
# T2 sequence (P41143 whole entry): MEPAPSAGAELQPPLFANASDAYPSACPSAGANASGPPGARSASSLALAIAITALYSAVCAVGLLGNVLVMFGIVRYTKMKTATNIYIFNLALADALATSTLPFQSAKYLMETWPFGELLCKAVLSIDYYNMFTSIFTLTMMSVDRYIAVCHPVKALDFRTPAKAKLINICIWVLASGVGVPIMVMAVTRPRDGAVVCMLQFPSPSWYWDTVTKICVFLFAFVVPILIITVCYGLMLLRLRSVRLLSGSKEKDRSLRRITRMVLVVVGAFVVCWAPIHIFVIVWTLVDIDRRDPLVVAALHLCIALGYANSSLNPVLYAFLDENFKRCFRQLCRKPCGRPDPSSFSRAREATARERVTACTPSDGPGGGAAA
# T3 sequence (P35372 whole entry): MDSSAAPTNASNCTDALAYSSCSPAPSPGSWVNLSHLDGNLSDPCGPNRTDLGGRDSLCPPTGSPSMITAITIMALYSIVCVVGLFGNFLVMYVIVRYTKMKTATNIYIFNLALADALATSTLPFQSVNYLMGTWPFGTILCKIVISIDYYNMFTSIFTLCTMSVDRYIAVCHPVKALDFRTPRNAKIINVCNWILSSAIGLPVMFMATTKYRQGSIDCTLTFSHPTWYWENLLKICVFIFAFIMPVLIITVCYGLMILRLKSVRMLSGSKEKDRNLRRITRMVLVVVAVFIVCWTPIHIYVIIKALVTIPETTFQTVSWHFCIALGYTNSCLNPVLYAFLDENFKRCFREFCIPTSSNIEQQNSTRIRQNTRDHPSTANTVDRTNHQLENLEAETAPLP
# T1 sequence (P41145 whole entry): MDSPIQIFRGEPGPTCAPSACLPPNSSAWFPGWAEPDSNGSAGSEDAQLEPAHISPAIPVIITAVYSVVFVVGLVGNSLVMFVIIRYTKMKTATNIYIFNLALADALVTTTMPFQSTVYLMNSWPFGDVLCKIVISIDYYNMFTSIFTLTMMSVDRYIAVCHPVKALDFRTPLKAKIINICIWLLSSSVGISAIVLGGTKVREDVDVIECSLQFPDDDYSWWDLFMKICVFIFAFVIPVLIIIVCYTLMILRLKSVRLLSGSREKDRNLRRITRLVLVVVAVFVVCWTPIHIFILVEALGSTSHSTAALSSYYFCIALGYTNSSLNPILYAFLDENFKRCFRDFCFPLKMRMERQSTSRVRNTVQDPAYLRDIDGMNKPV
# Sequence of Mu-type opioid receptor (Cavia porcellus, UniProt P97266) (P97266 whole entry): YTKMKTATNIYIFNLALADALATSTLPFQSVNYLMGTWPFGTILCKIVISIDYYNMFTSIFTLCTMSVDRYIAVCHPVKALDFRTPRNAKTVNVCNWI
Structure (SMILES),Ki [1],Ki [2],Ki [3],Ki [4],Ki (Mu-type opioid receptor [5]),Ki (Mu-type opioid receptor [6]),Ki (Mu-type opioid receptor [7]),Ki [8]
CCCCC(=N)NCCc1ccc2[nH]c3c(c2c1)C[C@@]1(O)C2Cc4ccc(O)c5c4C1(CCN2CC1CC1)C3O5 (some centres undefined),0.17 nM,0.3 nM,3.31 nM,38.2 nM,219 nM,5.33 nM,,
CCCCC(=N)NCc1ccc2[nH]c3c(c2c1)C[C@@]1(O)C2Cc4ccc(O)c5c4C1(CCN2CC1CC1)C3O5 (some centres undefined),,,,,,,3.5 nM,5.5 nM
NCCc1ccc2[nH]c3c(c2c1)C[C@@]1(O)C2Cc4ccc(O)c5c4C1(CCN2CC1CC1)C3O5 (some centres undefined),0.12 nM,1.08 nM,3.79 nM,28.2 nM,29.6 nM,17.4 nM,,
